The target in one assay is T1, A II receptor (Bos taurus, UniProt P25104).
T1 construct: An A II receptor membrane fraction was prepared from bovine adrenal cortex; from tissue; host or cells: bovine adrenal cortex membrane fraction
T1 sequence (P25104 1-359): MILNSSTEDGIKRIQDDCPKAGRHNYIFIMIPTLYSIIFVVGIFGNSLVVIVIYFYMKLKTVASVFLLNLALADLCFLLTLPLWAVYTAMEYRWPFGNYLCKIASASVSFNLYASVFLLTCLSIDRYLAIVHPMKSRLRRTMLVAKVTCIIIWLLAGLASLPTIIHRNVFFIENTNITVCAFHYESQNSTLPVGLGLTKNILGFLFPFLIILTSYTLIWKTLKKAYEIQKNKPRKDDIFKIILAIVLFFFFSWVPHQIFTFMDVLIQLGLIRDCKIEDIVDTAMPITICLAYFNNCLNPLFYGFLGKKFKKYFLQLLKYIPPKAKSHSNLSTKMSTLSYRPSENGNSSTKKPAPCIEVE
In words: Inhibition of binding of angiotensin II to angiotensin receptor (radioreceptor assay). Further details: species or system bovine; Radioreceptor Assay 1 × 10^−7M / Radioreceptor Assay 1 × 10^−6M: unit not given here. The settings on record: for inhibition at 1 µM / inhibition at 0.1 µM: 1 h; for inhibition at 1 µM / Radioreceptor Assay 1 × 10^−6M / Radioreceptor Assay 1 × 10^−7M: inhibition of 125I-A II binding, bovine adrenal cortex membrane fraction; for inhibition at 1 µM / Radioreceptor Assay 1 × 10^−6M: compound 1 × 10^−6M; for inhibition at 0.1 µM: read-out: Radioreceptor Assay 1 × 10^−7M; for Radioreceptor Assay 1 × 10^−7M: compound 1 × 10^−7M. Here is the method: An experiment of inhibition on the binding of angiotensin II (A II) to A II receptor was conducted by modifying the method of Douglas et al. [Endocrinology, 102, 685-696 (1978)]. An A II receptor membrane fraction was prepared from bovine adrenal cortex.
The compound of the present invention (10 ^−6M or 10^−7M) and ^125I-angiotensin II (^125I-A II) (1.85 kBq/50 μl ) were added to the receptor membrane fraction, and the mixture was incubated at room temperature for one hour. The receptor-bound and free ^125I-A II were separated through a filter (Whatman GF/B filter), and the radioactivity of ^125I-A II bound to the receptor was measured.

Assay [1] has as its system A II-induced pressor action. Kind of assay: Inhibitory effect on pressor action of A II after oral administration. In kind it is in vivo, Jcl: SD rats. The settings on record: for inhibition in vivo at 3 mg/kg: Rattus norvegicus, po, read-out: Pressor Response to A II (p.o.) 3 mg/kg; for Pressor Response to A II (p.o.) 3 mg/kg: percent inhibition of pressor action of i.v. A II (100 ng/kg), 3 mg/kg p.o., rats. Here is the method:
Jcl: SD rats (9 week old, male) were employed. On the previous day of the experiment, these animals were applied with cannulation into the femoral artery and vein under anesthesia with pentobarbital Na. The animals were fasted but allowed to access freely to drinking water until the experiment was started. Just on the day of conducting the experiment, the artery cannula was connected with a blood-pressure transducer, and the average blood pressure was recorded by means of polygraph. Before administration of the drug, the pressor action due to intravenous administration of A II (100 ng/kg) as the control was measured. The drugs were orally administered, then, at each point of the measurement, A II was administered intravenously, and the pressor action was similarly measured. By comparing the pressor action before and after administration of the drug, the percent inhibition by the drug on A II-induced pressor action was evaluated.

For the molecule `CCOc1nc2cccc(C(=O)OCOC(=O)C(C)C)c2n1Cc1ccc(-c2ccccc2-c2nnn[nH]2)cc1` [Example 53], at A II receptor, the inhibition at 1 µM is 85% and the inhibition at 0.1 µM worked out at 55%. The inhibition in vivo at 3 mg/kg in assay [1] is no less than 70%.

`CCOc1nc2cccc(C(=O)OC)c2n1Cc1ccc(-c2ccccc2-c2nnn[nH]2)cc1` [Example 39]: on A II receptor, the inhibition at 1 µM came to 89% and the inhibition at 0.1 µM stood at 58%. Also, the inhibition in vivo at 3 mg/kg in assay [1] was no less than 70%.

Turning to `CCOc1nc2cccc(C(=O)OCOC(=O)/C=C/c3ccccc3)c2n1Cc1ccc(-c2ccccc2-c2nnn[nH]2)cc1` [Example 60], at A II receptor, the “Radioreceptor Assay 1 × 10^−6M” value is 81 and the “Radioreceptor Assay 1 × 10^−7M” value is listed as 44. Besides, in assay [1], the “Pressor Response to A II (p.o.) 3 mg/kg” value is “+++ (+++ ≧ 70%)”.

Take `CCOc1nc2cccc(C(=O)OCOC(=O)C(C)(C)C)c2n1Cc1ccc(-c2ccccc2-c2nnn[nH]2)cc1` [Example 43]: at A II receptor, the “Radioreceptor Assay 1 × 10^−6M” value was 94 and the “Radioreceptor Assay 1 × 10^−7M” value is reported as 74. Moreover, in assay [1], the “Pressor Response to A II (p.o.) 3 mg/kg” value is reported as “+++ (+++ ≧ 70%)”.

Regarding `CCNc1nc2cccc(C(=O)OCOC(=O)C(C)(C)C)c2n1Cc1ccc(-c2ccccc2-c2nnn[nH]2)cc1` [Example 62], on A II receptor, the inhibition at 1 µM was 87% and the inhibition at 0.1 µM was 48%. Further, the inhibition in vivo at 3 mg/kg in assay [1] was no less than 70%.

Consider `COC(=O)c1cccc2nc(OC)n(Cc3ccc(-c4ccccc4-c4nnn[nH]4)cc3)c12` [Example 45], for which, on A II receptor, the inhibition at 1 µM was 67% and the inhibition at 0.1 µM was 17%. The inhibition in vivo at 3 mg/kg in assay [1] was no less than 70%.

Turning to `CCOc1nc2cccc(C(=O)O)c2n1Cc1ccc(-c2ccccc2-c2nnn[nH]2)cc1` [Example 29], at A II receptor, the inhibition at 1 µM was determined as 91% and the inhibition at 0.1 µM was found to be 61%. Further, the inhibition in vivo at 3 mg/kg in assay [1] was no less than 70%.

In the case of `CCNc1nc2cccc(C(=O)OC(C)OC(=O)OC3CCCCC3)c2n1Cc1ccc(-c2ccccc2-c2nnn[nH]2)cc1` (stereo not drawn) [Example 63], at A II receptor, the “Radioreceptor Assay 1 × 10^−6M” value was found to be 61 and the “Radioreceptor Assay 1 × 10^−7M” value was found to be 19. Also, in assay [1], the “Pressor Response to A II (p.o.) 3 mg/kg” value was “+++ (+++ ≧ 70%)”.

As for `CSc1nc2cccc(C(=O)O)c2n1Cc1ccc(-c2ccccc2-c2nnn[nH]2)cc1` [Example 36], at A II receptor, the inhibition at 1 µM stood at 82% and the inhibition at 0.1 µM stood at 51%. In addition, the inhibition in vivo at 3 mg/kg in assay [1] was no less than 70%.

On to `CCOC(=O)c1cccc2nc(SC)n(Cc3ccc(-c4ccccc4-c4nnn[nH]4)cc3)c12` [Example 33], for which, on A II receptor, the inhibition at 1 µM came to 26% and the inhibition at 0.1 µM was determined as 2%. Moreover, the inhibition in vivo at 3 mg/kg in assay [1] was 30 to 50%.

Take `CCOc1nc2cccc(C(=O)OCc3oc(=O)oc3C)c2n1Cc1ccc(-c2ccccc2-c2nnn[nH]2)cc1` [Example 49]: on A II receptor, the inhibition at 1 µM was determined as 91% and the inhibition at 0.1 µM stood at 66%. The inhibition in vivo at 3 mg/kg in assay [1] is no less than 70%.

Consider `CNc1nc2cccc(C(=O)O)c2n1Cc1ccc(-c2ccccc2-c2nnn[nH]2)cc1` [Example 57], for which, at A II receptor, the inhibition at 1 µM came out at 79% and the inhibition at 0.1 µM came out at 41%.

`CCNc1nc2cccc(C(=O)O)c2n1Cc1ccc(-c2ccccc2-c2nnn[nH]2)cc1` [Example 47]: at A II receptor, the “Radioreceptor Assay 1 × 10^−6M” value was found to be 96 and the “Radioreceptor Assay 1 × 10^−7M” value is recorded as 84. For the same molecule, the “Pressor Response to A II (p.o.) 3 mg/kg” value in assay [1] is “+++ (+++ ≧ 70%)”.

As to `CCOC(=O)c1cccc2nc(SCC)n(Cc3ccc(-c4ccccc4-c4nnn[nH]4)cc3)c12` [Example 34], on A II receptor, the inhibition at 1 µM was 54% and the inhibition at 0.1 µM came to 17%. The inhibition in vivo at 3 mg/kg in assay [1] is no less than 70%.

Take `CCCSc1nc2cccc(C(=O)OCC)c2n1Cc1ccc(-c2ccccc2-c2nnn[nH]2)cc1` [Example 35]: on A II receptor, the inhibition at 1 µM came to 32% and the inhibition at 0.1 µM worked out at 7%.

Regarding `COc1nc2cccc(C(=O)O)c2n1Cc1ccc(-c2ccccc2-c2nnn[nH]2)cc1` [Example 46], on A II receptor, the inhibition at 1 µM was 88% and the inhibition at 0.1 µM came to 66%. In addition, the inhibition in vivo at 3 mg/kg in assay [1] is no less than 70%.

In the case of `CCCNc1nc2cccc(C(=O)O)c2n1Cc1ccc(-c2ccccc2-c2nnn[nH]2)cc1` [Example 48], on A II receptor, the inhibition at 1 µM was found to be 92% and the inhibition at 0.1 µM was 67%. The inhibition in vivo at 3 mg/kg in assay [1] was 50 to 70%.

With `CCCNc1nc2cccc(C(=O)OCC)c2n1Cc1ccc(-c2ccccc2-c2nnn[nH]2)cc1` [Example 41], at A II receptor, the inhibition at 1 µM worked out at 57% and the inhibition at 0.1 µM came to 45%.

For `CCCSc1nc2cccc(C(=O)O)c2n1Cc1ccc(-c2ccccc2-c2nnn[nH]2)cc1` [Example 38], at A II receptor, the inhibition at 1 µM was determined as 50% and the inhibition at 0.1 µM turned out to be 6%. Also, in assay [1], the inhibition in vivo at 3 mg/kg is no less than 70%.

Consider `CCOc1nc2cccc(C(=O)OC(C)OC(C)=O)c2n1Cc1ccc(-c2ccccc2-c2nnn[nH]2)cc1` (stereo not drawn) [Example 55], for which, at A II receptor, the inhibition at 1 µM came out at 91% and the inhibition at 0.1 µM is 63%. In assay [1], the inhibition in vivo at 3 mg/kg is no less than 70%.

In the case of `CCSc1nc2cccc(C(=O)O)c2n1Cc1ccc(-c2ccccc2-c2nnn[nH]2)cc1` [Example 37], at A II receptor, the inhibition at 1 µM is 80% and the inhibition at 0.1 µM was determined as 41%. Further, the inhibition in vivo at 3 mg/kg in assay [1] is no less than 70%.

Regarding `CCCC(=O)OCOC(=O)c1cccc2nc(OCC)n(Cc3ccc(-c4ccccc4-c4nnn[nH]4)cc3)c12` [Example 52], on A II receptor, the inhibition at 1 µM was 84% and the inhibition at 0.1 µM is 48%. Further, in assay [1], the inhibition in vivo at 3 mg/kg was no less than 70%.

On to `CCOC(=O)OC(C)OC(=O)c1cccc2nc(OCC)n(Cc3ccc(-c4ccccc4-c4nnn[nH]4)cc3)c12` (stereo not drawn) [Example 54], for which, on A II receptor, the inhibition at 1 µM worked out at 81% and the inhibition at 0.1 µM came out at 42%. The inhibition in vivo at 3 mg/kg in assay [1] was no less than 70%.

As for `CCOC(=O)c1cccc2nc(OCC)n(Cc3ccc(-c4ccccc4-c4nnn[nH]4)cc3)c12` [Example 28], at A II receptor, the inhibition at 1 µM turned out to be 82% and the inhibition at 0.1 µM came out at 46%. For the same molecule, the inhibition in vivo at 3 mg/kg in assay [1] was no less than 70%.

On to `CCCOc1nc2cccc(C(=O)OCC)c2n1Cc1ccc(-c2ccccc2-c2nnn[nH]2)cc1` [Example 30], for which, at A II receptor, the inhibition at 1 µM is 48% and the inhibition at 0.1 µM is 16%. Besides, the inhibition in vivo at 3 mg/kg in assay [1] was no less than 70%.

Take `CCCOc1nc2cccc(C(=O)O)c2n1Cc1ccc(-c2ccccc2-c2nnn[nH]2)cc1` [Example 31]: at A II receptor, the inhibition at 1 µM was 79% and the inhibition at 0.1 µM amounted to 40%. Also, the inhibition in vivo at 3 mg/kg in assay [1] is no less than 70%.

With `CCOc1nc2cccc(C(=O)OCOC(=O)CC)c2n1Cc1ccc(-c2ccccc2-c2nnn[nH]2)cc1` [Example 51], at A II receptor, the inhibition at 1 µM was determined as 84% and the inhibition at 0.1 µM is 44%. Besides, in assay [1], the inhibition in vivo at 3 mg/kg is no less than 70%.

As to `CCOc1nc2cccc(C(=O)OCOC(C)=O)c2n1Cc1ccc(-c2ccccc2-c2nnn[nH]2)cc1` [Example 50], on A II receptor, the inhibition at 1 µM worked out at 92% and the inhibition at 0.1 µM came to 63%. In addition, the inhibition in vivo at 3 mg/kg in assay [1] was no less than 70%.

For `CCOc1nc2cccc(C(=O)OCOC(=O)C3CCCC3)c2n1Cc1ccc(-c2ccccc2-c2nnn[nH]2)cc1` [Example 61], on A II receptor, the inhibition at 1 µM came to 89% and the inhibition at 0.1 µM came to 54%. In assay [1], the inhibition in vivo at 3 mg/kg is no less than 70%.

The record behind these values is patent US6844443B2, “Benzimidazole derivatives, their production and use” (Takeda Pharmaceutical Company, Ltd., priority 1990, dated 2005).
